Reference: patent US20100221719A1, “Probes for detecting protein nuclear transport and method for detecting and quantifying protein nuclear transport using the same” (priority 2004, published 2010)
Values belong to the molecule of their own block, whether it stands above or below them.

What was measured:
[1] = biological target: T1, glucocorticoid receptor (GR) (Homo sapiens, UniProt P04150); test: Quantification of GR translocation into the nucleus (reconstituted RLuc luminescence, NIH3T3 cells); format: cell-based
T1 construct: DnaE-C (C-terminal splicing domain of DnaE intein) (N); expressed in transfected cells; host or cells: NIH3T3
T1 sequence (P04150 1-777): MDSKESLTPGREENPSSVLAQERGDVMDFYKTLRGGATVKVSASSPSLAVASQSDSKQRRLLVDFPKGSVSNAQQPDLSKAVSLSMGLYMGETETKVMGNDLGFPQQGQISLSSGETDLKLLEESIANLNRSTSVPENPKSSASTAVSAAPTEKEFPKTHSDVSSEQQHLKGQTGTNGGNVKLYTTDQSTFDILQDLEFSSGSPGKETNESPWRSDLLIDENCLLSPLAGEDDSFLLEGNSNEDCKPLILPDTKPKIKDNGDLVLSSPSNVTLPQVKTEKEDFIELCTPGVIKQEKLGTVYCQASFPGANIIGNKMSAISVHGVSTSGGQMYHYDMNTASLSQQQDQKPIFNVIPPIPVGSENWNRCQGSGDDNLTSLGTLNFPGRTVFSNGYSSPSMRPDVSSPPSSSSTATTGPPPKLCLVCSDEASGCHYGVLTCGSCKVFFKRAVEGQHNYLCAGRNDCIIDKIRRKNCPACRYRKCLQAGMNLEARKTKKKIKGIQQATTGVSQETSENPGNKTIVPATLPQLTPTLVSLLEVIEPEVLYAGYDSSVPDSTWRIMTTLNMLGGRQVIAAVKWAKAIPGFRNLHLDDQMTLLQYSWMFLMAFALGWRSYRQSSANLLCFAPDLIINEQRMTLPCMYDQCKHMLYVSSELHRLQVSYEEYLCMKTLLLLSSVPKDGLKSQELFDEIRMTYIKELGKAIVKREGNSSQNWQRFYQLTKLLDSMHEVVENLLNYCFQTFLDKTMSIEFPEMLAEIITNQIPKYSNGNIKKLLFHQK
Experimental: NIH3T3 cells were cotransfected with pcRDn-NLS and pcDRc-GR, and different concentrations of corticosterone were added to each microtiter well. The cells were harvested, and their lysates were mixed with a coelenterazine solution.

androgen receptor (AR) [2] = biological target: T2, androgen receptor (AR) (Homo sapiens, UniProt P10275); test: Cell-based in vitro assay of AR translocation into the nucleus (reconstituted RLuc luminescence, COS-7 cells)
T2 construct: DnaE-C (C-terminal splicing domain of DnaE intein) (N); expressed in transfected cells; host or cells: COS-7
T2 sequence (P10275 1-920): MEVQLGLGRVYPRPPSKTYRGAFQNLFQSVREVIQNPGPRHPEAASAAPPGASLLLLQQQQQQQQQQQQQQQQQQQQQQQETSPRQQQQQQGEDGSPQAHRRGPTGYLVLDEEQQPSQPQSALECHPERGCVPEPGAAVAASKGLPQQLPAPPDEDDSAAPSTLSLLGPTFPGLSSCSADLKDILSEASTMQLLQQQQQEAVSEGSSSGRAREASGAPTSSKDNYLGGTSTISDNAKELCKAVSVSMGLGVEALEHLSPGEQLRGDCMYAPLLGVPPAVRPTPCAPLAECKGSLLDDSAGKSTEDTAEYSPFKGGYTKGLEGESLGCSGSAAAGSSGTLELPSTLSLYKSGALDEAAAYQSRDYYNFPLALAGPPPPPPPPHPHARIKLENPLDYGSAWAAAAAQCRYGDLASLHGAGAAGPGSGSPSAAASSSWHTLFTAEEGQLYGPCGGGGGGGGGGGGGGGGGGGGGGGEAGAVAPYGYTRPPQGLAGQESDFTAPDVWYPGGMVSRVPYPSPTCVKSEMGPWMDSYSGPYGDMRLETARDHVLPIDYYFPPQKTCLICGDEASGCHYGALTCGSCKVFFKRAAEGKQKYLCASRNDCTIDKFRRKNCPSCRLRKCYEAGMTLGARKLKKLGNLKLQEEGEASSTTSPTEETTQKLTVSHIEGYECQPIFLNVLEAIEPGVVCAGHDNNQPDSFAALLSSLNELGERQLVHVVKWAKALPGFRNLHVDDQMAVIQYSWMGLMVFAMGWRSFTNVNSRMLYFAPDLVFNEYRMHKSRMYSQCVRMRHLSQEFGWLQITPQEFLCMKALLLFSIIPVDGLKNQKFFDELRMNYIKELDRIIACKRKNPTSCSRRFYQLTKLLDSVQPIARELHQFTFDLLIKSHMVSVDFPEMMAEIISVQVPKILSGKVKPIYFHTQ
Experimental: COS-7 cells were cotransfected with the plasmids and incubated for 12 h. The medium was replaced with DMEM supplemented with 10% FBS, and 24 h after the replacement, steroid hormones or synthetic chemicals were added to each well.
After the COS-7 cells were extensively incubated for 2 hours, the cells were harvested, and luciferase activity was evaluated by using the Renilla luciferase assay kit (Promega) with a luminometer (Minilumat LB9506; Berthold, GmbH) with an integration time of 20 sec.
The cells were harvested, and their lysates were mixed with a coelenterazine solution.

androgen receptor (AR) [3] = biological target: T2, androgen receptor (AR); test: In vivo imaging of AR nuclear import in mouse brain with implanted cotransfected COS-7 cells; details: inhibitor 10 mg/kg i.p. plus DHT, average from three mice
Experimental: Two hours after injection, 10 μl of coelenterazine (0.14 mg/kg of body weight) was injected intracerebrally in the mice, and representatives from each mouse group (n=3) were imaged in 2-min intervals.

[4] = biological target: T1, glucocorticoid receptor (GR); test: Confirmation of GR localization in NIH3T3 cells transfected with pcDRc-GR; format: cell-based; details: addition of corticosterone, FIG. 14
Experimental: Plasmid pcDRc-AR in Examples 1 to 6 was cleaved with restriction endonucleases NotI and XhoI to remove the cDNA encoding AR, and a cDNA encoding glucocorticoid receptor (GR) was inserted at NotI and XhoI sites (FIG. 13). The same experiment as in case of AR was performed using the thus-constructed plasmid.

[5] = tested on: Sterol Regulatory Element-Binding Proten-2 (SREBP-2); test: Confirmation of SREBP-2 localization in COS-7 cells transfected with pcDRc-SREBP; format: cell-based; details: in the presence of cholesterol, FIG. 18
Source text: Plasmid pcDRc-AR in Examples 1 to 6 was cleaved with restriction endonucleases NotI and XhoI to remove the cDNA encoding AR, and a cDNA encoding SREBP-2 was inserted at NotI and XhoI sites thereby constructing pcDRc-SREBP (FIG. 17).

[6] = tested on: Sterol Regulatory Element-Binding Proten-2 (SREBP-2); test: Quantification of SREBP-2 translocation into the nucleus (reconstituted RLuc luminescence, COS-7 cells); format: cell-based; details: different concentrations of cholesterol, FIG. 19
Experimental: Translocation of SERPB-2 into the nucleus was qualified in the same manner as in Example 7. COS-7 cells were cotransfected with pcRDn-NLS and pcDRc-SREBP, and different concentrations of cholesterol were added to each microtiter well. The cells were harvested, and their lysates were mixed with a coelenterazine solution.

[7] = tested on: Signal Transducer and Activator of Transcription 3 (STAT-3); test: Confirmation of STAT-3 localization in HEK293 cells transfected with pcDRc-STAT3; format: cell-based; details: addition of OSM, FIG. 21
Source text: Plasmid pcDRc-AR in Examples 1 to 6 was cleaved with restriction endonucleases NotI and XhoI to remove the cDNA encoding AR, and a cDNA encoding STAT-3 was inserted at NotI and XhoI sites thereby constructing pcDRc-STAT-3 (FIG. 20).

[8] = tested on: Signal Transducer and Activator of Transcription 3 (STAT-3); test: Quantification of STAT-3 translocation into the nucleus (reconstituted RLuc luminescence, HEK293 cells); format: cell-based; details: different concentrations of OSM
Experimental: HEK293 cells were cotransfected with pcRDn-NLS and pcDRc-STAT3, and different concentrations of OSM were added to each microtiter well. The cells were harvested, and their lysates were mixed with a coelenterazine solution.

Molecule: C[C@]12CCC(=O)C=C1CC[C@@H]1[C@@H]2[C@@H](O)C[C@@]2(C)[C@H]1CC[C@]2(O)C(=O)CO [cortisol]
induction of GR translocation into the nucleus ([1]; FIG. 15): induce the GR translocation into the nucleus

Molecule: CC12CC1(C)C(=O)N(c1cc(Cl)cc(Cl)c1)C2=O (stereo not shown) [procymidone]
inhibition of DHT-induced luminescence / nuclear translocation of AR (androgen receptor (AR) [2]; in the presence of DHT, FIG. 5c): inhibit the DHT-induced strong luminescence
increase in observed luminescence intensity (AR translocation, compound alone) (androgen receptor (AR) [2]; over the concentration range tested, FIG. 5b): did not induce any increase
luminescence intensity on stimulation with DHT together with inhibitor (androgen receptor (AR) [3]): decrease in luminescence intensity

localization of Probe I (GR) [4]: nuclear localization of Probe I
Molecule: C[C@]12C[C@H](O)[C@H]3[C@@H](CCC4=CC(=O)CC[C@@]43C)[C@@H]1CC[C@@H]2C(=O)CO [corticosterone]
luminescence signals of reconstituted RLuc (dose-response) ([1]; different concentrations of corticosterone): increased with increasing the concentration of corticosterone

Molecule: CC(C)CCC[C@@H](C)[C@H]1CC[C@H]2[C@@H]3CC=C4C[C@@H](O)CC[C@]4(C)[C@H]3CC[C@]12C [cholesterol]
localization of the probe with SREBP-2 [5]: predominantly in cytoplasmic
luminescence signals of reconstituted RLuc (dose-response) [6]: increased with decreasing the concentration of cholesterol

B1: oncostatin M (protein, UniProt P13725 26-221, looked up)
Oncostatin-M: AAIGSCSKEYRVLLGQLQKQTDLMQDTSRLLDPYIRIQGLDVPKLREHCRERPGAFPSEETLRGLGRRGFLQTLNATLGCVLHRLADLEQRLPKAQDLERSGLNIEDLEKLQMARPNILGLRNNIYCMAQLLDNSDTAEPTKAGRGASQPPTPTPASDAFQRKLEGCRFLHGYHRFMHSVGRVFSKWGESPNRSRR
notes: oncostatin M (OSM), a ligand
localization of the probe with STAT3 [7]: nuclear localization of the probe
luminescence signals of reconstituted RLuc (dose-response) [8]: increased with decreasing the concentration of cOSM
